This note sets out measurements from patent publication US11084805B2, “Compound derived from allulose” (CJ CHEILJEDANG CORPORATION, priority 2019, dated 2021).

The data set in a line: Evaluation of acid resistance of allulose disaccharide (residual percentage by HPLC after storage in citrate buffer). Format: physicochemical. Particulars: for Residual percentage: 1% (w/v) in 10 mM citrate buffer. The protocol: 1% D1 solution was prepared (in 10 mM citrate buffer) to measure acid resistance thereof. Sucrose that is a disaccharide having a similar structure and D2 that is another allulose disaccharide were used as controls.
The pH of the solution was adjusted to pH 2.0, 4.0, and 6.0 using 10 mM citrate and sodium citrate buffers. The prepared solutions were respectively stored at room temperature ([…]), and purities of remaining substances were identified by HPLC analysis (HPX-87C column, 80° C., 60 min, 20 μl) at 0 hour, 24 hours, 72 hours, and 120 hours. The concentration of each substance was 1% (w/v) and reaction temperature was 40° C.
Those results which show statistically significant difference under the same experimental conditions were indicated by different alphabets.
The measured results with respect to storage time were analyzed using analysis of variance (ANOVA) as statistical analysis and tukey's multiple range test as post hoc analysis, and statistical significance was set to p<0.05.

SMILES strings stand for the structures.

`OCC1(O)O[C@H](CO[C@]2(CO)OC[C@@H](O)[C@@H](O)[C@H]2O)[C@@H](O)[C@H]1O` (stereo partly drawn) [D1, (2S,3R,4R,5R)-2-(hydroxymethyl)-2-(((2R,3S,4R)-3,4,5-trihydroxy-5-(hydroxymethyl)tetrahydrofuran-2-yl)methoxy)tetrahydro-2H-pyran-3,4,5-triol]: the “Acid resistance compared with D2 and sucrose” value (at pH 6 or less) is “higher acid resistance than that of D2 and sucrose”. For the same compound, the Residual percentage was 100.0% (pH 2, 40° C., 0 hr); 85.9^A % (pH 2, 40° C., 24 hr); 58.2^A % (pH 2, 40° C., 72 hr); 44.6^A % (pH 2, 40° C., 120 hr); 100.0% (pH 4, 40° C., 0 hr); 99.0^A % (pH 4, 40° C., 24 hr). Further, the Residual percentage is, setting by setting: (pH 4, 40° C., 72 hr) 98.8^A %; (pH 4, 40° C., 120 hr) 97.9^A %; (pH 6, 40° C., 0 hr) 100.0%; (pH 6, 40° C., 24 hr) 100.0%; (pH 6, 40° C., 72 hr) 100.0%; (pH 6, 40° C., 120 hr) 99.96^A* %. The “Residual percentage of D1 relative to that of sucrose (higher than)” value (pH 2, after 120 hours) is recorded as “about 130%”.
As to `OC[C@H]1O[C@@](CO)(O[C@H]2O[C@H](CO)[C@@H](O)[C@H](O)[C@H]2O)[C@@H](O)[C@@H]1O` [Sucrose, reference compound], the Residual percentage is reported as 100.0% (pH 2, 40° C., 0 hr); 81.2^B % (pH 2, 40° C., 24 hr); 51.9^B % (pH 2, 40° C., 72 hr); 34.4^B % (pH 2, 40° C., 120 hr); 100.0% (pH 4, 40° C., 0 hr); 98.1^A % (pH 4, 40° C., 24 hr). The Residual percentage is, setting by setting: (pH 4, 40° C., 72 hr) 95.8^B %; (pH 4, 40° C., 120 hr) 92.9^B %; (pH 6, 40° C., 0 hr) 100.0%; (pH 6, 40° C., 24 hr) 100.0%; (pH 6, 40° C., 72 hr) 99.9%; (pH 6, 40° C., 120 hr) 99.58^A* %.
